Measurements reported in patent publication US7700584B2 (Hangzhou Minsheng Pharmaceuticals Co., Ltd., priority 2004, dated 2010).
Like-named read-outs stand apart in the source and are kept apart here.

What was measured:
[1] = test system: Bel-7402 human hepatic carcinoma; assay: In vitro inhibition rate to tumor cells (MTT), Bel-7402; type: cell-based; conditions: for inhibition rate, Results (%) Bel-7402: 50 μg/ml; for inhibition at 50 µg/mL: Homo sapiens, Bel-7402, 50 μg/ml, read-out: inhibition rate, Results (%) Bel-7402
[2] = target: T1, HIV-1 integrase (HIV-1 IN) (Human immunodeficiency virus type 1 group M subtype B, UniProt P04585); assay: Screening for the activity against HIV-1 integrase; type: biochemical
T1 construct: a purified HIV-1 integrase was added into each well; purchased
Procedure: Principle of the test: A synthetic oligonucleotide of 30 nt was used as the donor substrate. A synthetic oligonucleotide of 20 nt was used as the target substrate. A 96-well plate was covered by the donor substrate, and a purified HIV-1 integrase was added into each well. ELISA was performed to measure the product of the target DNA chain transfer. A biotin-labeled alkali phosphatase was used to visual the system. OD value was measured by an Enzyme-linked Detector. Add a sample into the reaction system for screening the inhibitor of the enzyme.
1. HIV-1 IN: commercially available.
2. Treatment of the samples: Before use, the sample was dissolved in water or DMSO at a suitable concentration, then serially diluted (5×), four serial dilutions per sample. The stock solutions of two samples were 100-fold diluted with DMSO, then 5-fold diluted, four serial dilutions per sample. Positive control: S-y, provided by Shanghai Organic Chemistry Institute.
3. The donor substrate and target substrate: synthesized by Shanghai Biological Engineering Company (Shanghai Shenggong).
4. Methods: The diluted sample was added into a 96-well plate covered by the donor substrate, and then added into the reaction buffer containing the genetic engineered target enzyme and biotin-target substrate, incubated in the optimal reaction conditions. A biotin-labeled alkali phosphatase was used to visual the system to determine the absorbance at 450 nm (OD450).

[3] = test system: Hela human cervical carcinoma; assay: In vitro inhibition rate to tumor cells (MTT), Hela; type: cell-based; conditions: 50 μg/ml; for inhibition at 50 µg/mL: Homo sapiens, HeLa, read-out: inhibition rate, Results (%) Hela
[4] = target: T2, HIV-1 reverse transcriptase (Human immunodeficiency virus type 1 group M subtype B, UniProt P04585); assay: Screening for the in vitro activity against the HIV-1 reverse transcriptase; type: biochemical
T2 construct: purchased
Procedure: Principle of the test: The template to which the HIV-1 reverse transcriptase interacts was covered onto the enzyme-lined template. In the optimal reaction conditions and system, HIV-1 RT will put the substrate comprising Biotin-dUTP onto the reaction template. The activity of the enzyme was measured as the amount of the integrating Biotin-dUTP in the reaction by using streptavidin-labeled horseradish peroxidase. Adding the sample to the reaction system can identify inhibitor of the enzyme.
1. HIV-1 RT: commercially available.
2. Treatment of the samples: Before use, the sample was dissolved in DMSO at a suitable concentration, then serially diluted (5×) with double distilled water, five serial dilutions per sample.
4. Methods: The diluted sample was added into the reaction buffer containing Biotin-dUTP and the genetic engineered target enzyme, and incubated in the optimal reaction conditions. A streptavidin-labeled horseradish peroxidase was added to visual the system, and OD450 was measured.

[5] = test system: U-937 human histocytic lymphoma; assay: In vitro anti-tumor IC50 (MTT), U-937; type: cell-based; conditions: Homo sapiens, U-937; Table 4; read-out: IC50 (ug/ml) against tumor cell lines, U-937
Procedure: (§1) (1) Single cell suspension was seeded into 96-well plates (the cells was diluted in the PRMI-1640 minimum medium to 3×10^4 cells/ml, […] diluted cells/well). […] The experiments were performed in quadruplicate.
(§2) (2) The medium was removed. Solutions of the anti-tumor agents (50 compounds) were prepared in a freshly prepared medium at serial concentrations. […] of the solution was added into each well. Incubation was continued for 48 hours.
(§3) (3) 20 ug of 2 mg/ml MTT was added into each well, and incubated for 4 hours.
(§4) (4) The medium was removed from the well. The microplates were swiftly turned down to throw-off the medium. […] of DMSO was added into each well, and vortexed at room temperature for 10 minutes.
(§5) (5) OD value (λ=570 nm) was measured with an Enzyme-Linked Detector.
(§6) (6) The graph of cell vitality was plotted, and IC50 was calculated.

[6] = test system: SMMC-7721 human hepatic carcinoma; assay: In vitro inhibition rate to tumor cells (MTT), SMMC-7721; type: cell-based; conditions: for inhibition rate, Results (%) SMMC-7721: 50 μg/ml; for inhibition at 50 µg/mL: Homo sapiens, SMMC-7721, 50 μg/ml, read-out: inhibition rate, Results (%) SMMC-7721
[7] = test system: LLC mouse Lewis lung carcinoma; assay: In vitro inhibition rate to tumor cells (MTT), LLC; type: cell-based; conditions: 50 μg/ml; for inhibition at 50 µg/mL: Mus musculus, Lewis lung carcinoma
[8] = test system: A-549 human lung adenocarcinoma; assay: In vitro inhibition rate to tumor cells (MTT), A-549; type: cell-based; conditions: for inhibition rate, Results (%) A-549: 50 μg/ml; for inhibition at 50 µg/mL: Homo sapiens, A549, 50 μg/ml, read-out: inhibition rate, Results (%) A-549
[9] = test system: Hela human cervical carcinoma; assay: In vitro anti-tumor IC50 (MTT), Hela; type: cell-based; conditions: Homo sapiens, HeLa; Table 4; read-out: IC50 (ug/ml) against tumor cell lines, Hela
[10] = test system: HL-60 human promyelocytic leukemia; assay: In vitro anti-tumor IC50 (MTT), HL-60; type: cell-based; conditions: Homo sapiens, HL-60; Table 4; read-out: IC50 (ug/ml) against tumor cell lines, HL-60
Procedure: as §1, §2, §3, §4, §5, §6

[11] = test system: HL-60 human promyelocytic leukemia; assay: In vitro inhibition rate to tumor cells (MTT), HL-60; type: cell-based; conditions: for inhibition rate, Results (%) HL-60: 50 μg/ml; for inhibition at 50 µg/mL: Homo sapiens, HL-60, 50 μg/ml, read-out: inhibition rate, Results (%) HL-60
[12] = test system: MCF-7 human mammary adenocarcinoma; assay: In vitro anti-tumor IC50 (MTT), MCF-7; type: cell-based; conditions: Homo sapiens, MCF7; Table 4; read-out: IC50 (ug/ml) against tumor cell lines, MCF
Procedure: as §1, §2, §3, §4, §5, §6

[13] = test system: U-937 human histocytic lymphoma; assay: In vitro inhibition rate to tumor cells (MTT), U-937; type: cell-based; conditions: for inhibition rate, Results (%) U-937: 50 μg/ml; for inhibition at 50 µg/mL: Homo sapiens, U-937, 50 μg/ml, read-out: inhibition rate, Results (%) U-937

## C=C1CC2(OS(=O)(=O)[O-])OC3(CC2C(C)C)C(C)CCC13.[Na+] (centres unmarked) [Compound 21, Curcumol sodium sulfonate]
[1]; Table 1
  inhibition rate, Results (%) Bel-7402: 5.36%
[1]; Table 2 (repeated screening)
  inhibition rate, Results (%) Bel-7402: 2.13%
[1]; Table 3 (repeated screening)
  inhibition rate, Results (%) Bel-7402: 3.12%
[2]; initial concentration 100 μg/ml
  IC50: — (indicates that the initial concentration of the sample had a inhibition rate of less than 50% against HIV-1 IN.)
[3]; Table 1
  inhibition rate, Results (%) Hela: 91.69%
[3]; Table 2 (repeated screening)
  inhibition rate, Results (%) Hela: 90.11%
[3]; Table 3 (repeated screening)
  inhibition rate, Results (%) Hela: 91.67%
[4]; IC50, initial concentration 200 μg/ml
  IC50: > 591 µM
[5]
  IC50: 0.89 µg/mL
[6]; Table 1
  inhibition rate, Results (%) SMMC-7721: −7.26%
[6]; Table 2 (repeated screening)
  inhibition rate, Results (%) SMMC-7721: −1.82%
[6]; Table 3 (repeated screening)
  inhibition rate, Results (%) SMMC-7721: −2.93%
[7]; Table 1
  inhibition rate, Results (%) LLC: 10.47%
[7]; Table 2 (repeated screening)
  inhibition rate, Results (%) LLC: 1.89%
[7]; Table 3 (repeated screening)
  inhibition rate, Results (%) LLC: 7.58%
[8]; Table 1
  inhibition rate, Results (%) A-549: 26.42%
[8]; Table 2 (repeated screening)
  inhibition rate, Results (%) A-549: 20.01%
[8]; Table 3 (repeated screening)
  inhibition rate, Results (%) A-549: 1.23%
[9]
  IC50: 0.75 µg/mL
[10]
  IC50: 1.3 µg/mL
[11]; Table 1
  inhibition rate, Results (%) HL-60: 93.12%
[11]; Table 2 (repeated screening)
  inhibition rate, Results (%) HL-60: 90.89%
[11]; Table 3 (repeated screening)
  inhibition rate, Results (%) HL-60: 89.79%
[12]
  IC50: 4.99 µg/mL
[13]; Table 1
  inhibition rate, Results (%) U-937: 92.04%
[13]; Table 2 (repeated screening)
  inhibition rate, Results (%) U-937: 89.46%
[13]; Table 3 (repeated screening)
  inhibition rate, Results (%) U-937: 91.45%

## C=C1CC2(OC(=O)C(C)C)OC3(CC2C(C)C)C(C)CCC13 (centres unmarked) [Compound 3, Curcumol isobutyrate]
[1]; Table 1
  inhibition at 50 µg/mL: 14.4%
[1]; Table 2 (repeated screening)
  inhibition at 50 µg/mL: 11%
[2]
  IC50: 117 µM
[3]; Table 1
  inhibition at 50 µg/mL: 69.2%
[3]; Table 2 (repeated screening)
  inhibition at 50 µg/mL: 70.2%
[4]; 120 ug/ml
  inhibition rate of HIV-1 reverse transcriptase: 60%
[4]; IC50, initial concentration 1/150 of the stock solution
  IC50: < 392 µM
[6]; Table 1
  inhibition at 50 µg/mL: 8.02%
[6]; Table 2 (repeated screening)
  inhibition at 50 µg/mL: 8.96%
[7]; Table 1
  inhibition at 50 µg/mL: 6.89%
[7]; Table 2 (repeated screening)
  inhibition at 50 µg/mL: 0.02%
[8]; Table 1
  inhibition at 50 µg/mL: 7.76%
[8]; Table 2 (repeated screening)
  inhibition at 50 µg/mL: 10.3%
[11]; Table 1
  inhibition at 50 µg/mL: 3.21%
[11]; Table 2 (repeated screening)
  inhibition at 50 µg/mL: 4.89%
[13]; Table 1
  inhibition at 50 µg/mL: 91.7%
[13]; Table 2 (repeated screening)
  inhibition at 50 µg/mL: 93%
